These results are taken from patent US7618986B2, “Method of treating latent tuberculosis” (priority 2006, dated 2009).

The test system of data set [1] is M. tuberculosis H37Rv. Kind of data set: Hypoxic (anaerobic) clonogenic MBC assay, dormant H37Rv. The following applies: for MBC: Mycobacterium tuberculosis. It is filed as cell-based.
Data set [2] has as its system M. tuberculosis H37Rv. As to conditions: hypoxic MBC assay; cited from earlier work.
The subject of data set [3] is Mycobacterium tuberculosis H37Rv. Kind of data set: Microplate Alamar Blue Assay (MABA), aerobic. Format: cell-based.
A further data set deals with VERO cells. Kind of data set: Cytotoxicity against VERO cells (MTT, 72 hours exposure). It is filed as cell-based. The following applies: for IC50: Chlorocebus sabaeus, Vero, read-out: IC50 in VERO cells.
The nature of data set [4]: Water solubility and stability of aqueous stock solutions. Format: physicochemical. As to conditions: for solubility in water: hydrochloride salt. Here is the method: Commercially available 4,7-dichloroquinoline (1) first was converted to the 4-fluoro-derivative (2) by refluxing for 6 hours in DMSO with lyophilized potassium fluoride (KF) (1.5 eq) from a 5% aqueous solution.
HRMS (VG 70-250SE mass spectrometer): Calculated for C16H16ClN5O2 (free amine): m/z 345.0992. […] FAB (VG 70-250SE mass spectrometer). Calculated for C16H17ClN5O2 (M+): m/z 346.

For data set [5] the following is noted: in vivo, po, 600 mg; cited from earlier work.
In data set [6] the test system is Mycobacterium tuberculosis H37Rv. The following applies: MABA, 7H12 media, 90% reduction in fluorescence; cited from earlier work.
The nature of data set [7]: Stability in human plasma. Format: in vitro ADME.
The nature of the next data set: Toxicity study in rats. The following applies: i.v. daily 16 mg/kg, female rats. It is filed as in vivo.
A further data set in a line: Toxicity study in dogs. As to conditions: i.v. daily 10.95 mg/kg. Format: in vivo.
The nature of data set [8]: Toxicity (MTD, adverse effects) in mice. It is filed as in vivo. From the text: determination of MTD ([…], MTD) in vivo (C57BL/6 female mice, i.p. administration of single doses, 1 week duration); and
(§1) An oral MTD was not determined.

A short description of data set [9]: Plasma concentration after administration to CD2F1 mice. Format: in vivo.
Excerpt: as §1

Setting [10] is: dormant H37Rv cells, ranges depending on the assay (Table 2).
Setting [11] is: present day anti-TB drugs as positive controls.
[12] abbreviates: H37RV, pH 6.7, read-out: H37Rv MBC (hypoxic).
Where [13] appears, read: H37RV, read-out: MBC (minimum bactericidal concentration).
Setting [14] is: pH 6.7, read-out: % Inh (aerobic).
Where [15] appears, read: H37RV, present day anti-TB drugs as positive controls, read-out: H37Rv MBC (hypoxic assay).
Setting [16] is: dormant H37Rv cells, ranges depending on the assay (Table 2), read-out: MBC (minimum bactericidal concentration).

Values after ≈ are worked out from the molar mass of the structure shown. Structures can show the parent of a compound that is named as a salt. Where two headings read alike, the source gives them in different places.

In the case of capreomycin, the “MBC (minimum bactericidal concentration)” value in the data set on M. tuberculosis H37Rv [1] (setting [10]) amounted to 37.5 mg/L. Further, the “H37Rv MBC (hypoxic assay)” value with M. tuberculosis H37Rv [1] (setting [11]) came out at 37.5 mg/L.

As for `Cc1ncc([N+](=O)[O-])n1CCO` [Metronidazole, metronidazole], the “activity in hypoxic assay” value in the data set on M. tuberculosis H37Rv [2] was “activity is observed only at very high concentrations”.

The IC50 is the concentration that gives 50% inhibition. With `O=[N+]([O-])c1nccn1CCCCNc1ccnc2cc(Cl)ccc12` [NLCQ-2, 4-[4-(2-nitro-1-imidazolyl)-butylamino]-7-chloroquinoline hydrochloride], the MBC in the data set on M. tuberculosis H37Rv [1] (setting [12]) turned out to be 6.25 mg/L. The MBC in the data set with M. tuberculosis H37Rv [1] (setting [13]) was in the range of 4.9 to 9.8 mg/L. The inhibition at 6.25 µg/mL in data set [3] (setting [14]) is 0%. For the same compound, the IC50 in the data set on VERO cells was greater than 640 mg/L. In the data set with VERO cells (toxicity, hydrochloride), the “IC50 in VERO cells” value is greater than 640 mg/L. Besides, in data set [4], the “hydrophilicity (aqueous solubility) compared with PA-824” value is reported as “more hydrophilic” and the “solubility in water” value is reported as “soluble in water”.

Regarding `CN(C)c1ccc(O)c2c1C[C@H]1C[C@H]3[C@H](N(C)C)C(O)=C(C(N)=O)C(=O)[C@@]3(O)C(O)=C1C2=O` [Minocyclin, minocyclin], the “MBC (minimum bactericidal concentration)” value against M. tuberculosis H37Rv [1] (setting [10]) is greater than 156.25 mg/L; in the data set on M. tuberculosis H37Rv [1] (dormant H37Rv cells, ranges depending on the assay (Table 2), listed as minocyclin), greater than 156.25 mg/L. Moreover, the “H37Rv MBC (hypoxic assay)” value in the data set with M. tuberculosis H37Rv [1] (setting [11]) worked out at 156.25 mg/L.

Turning to `Cc1nc(C(F)(F)F)nc(NCCCn2ccnc2[N+](=O)[O-])c1C` [CF3PM], in the data set with M. tuberculosis H37Rv [1] (setting [12]), the MBC was 7.01 to 25 mg/L (≈ 20.4 to 72.6 µM). In [3] (aerobic conditions, 6.25 μg/mL, pH 6.7-6.8, read-out: % Inh (aerobic)), the inhibition at 6.25 µg/mL worked out at 23%.

What is called Cmax is the peak of the concentration-time curve. On to `CO[C@H]1/C=C/O[C@@]2(C)Oc3c(C)c(O)c4c(O)c(c(/C=N/N5CCN(C)CC5)c(O)c4c3C2=O)NC(=O)/C(C)=C\C=C\[C@H](C)[C@H](O)[C@@H](C)[C@@H](O)[C@@H](C)[C@H](OC(C)=O)[C@@H]1C` [Rifampin, rifampin], for which the MBC with M. tuberculosis H37Rv [1] (setting [15]) and with M. tuberculosis H37Rv [1] (setting [16]) was 2.5 mg/L (≈ 3.04 µM) in each case. In addition, in [5], the Cmax was 8 µg/mL.

Turning to `NNC(=O)c1ccncc1` [Isoniazid, isoniazid], in [6], the “expected MIC range (quality control)” value is 0.025 to 0.1 mg/L. Moreover, the MBC in the data set with M. tuberculosis H37Rv [1] (setting [15]) and in the data set on M. tuberculosis H37Rv [1] (setting [16]) was greater than 100 mg/L throughout. For the same compound, the “MBC (minimum bactericidal concentration)” value against M. tuberculosis H37Rv [1] (setting [10]) is greater than 100 mg/L.

Regarding `[H]/N=C(/N)N[C@H]1[C@H](O)[C@@H](O)[C@H](O[C@@H]2O[C@@H](C)[C@](O)(C=O)[C@H]2O[C@@H]2O[C@@H](CO)[C@H](O)[C@@H](O)[C@@H]2NC)[C@@H](N/C(N)=N\[H])[C@@H]1O` [Streptomycin, streptomycin], the MBC is 12.5 mg/L (≈ 21.5 µM) in the data set with M. tuberculosis H37Rv [1] (setting [15]) and greater than 12.5 mg/L in the data set with M. tuberculosis H37Rv [1] (setting [16]). Besides, the “MBC (minimum bactericidal concentration)” value against M. tuberculosis H37Rv [1] (setting [10]) was greater than 12.5 mg/L.

Turning to `O=[N+]([O-])c1cn2c(n1)OC[C@@H](OCc1ccc(OC(F)(F)F)cc1)C2` [PA-824], the MBC with M. tuberculosis H37Rv [1] (setting [13]) was 6.4 to 12.8 mg/L (≈ 17.8 to 35.6 µM). In the data set on VERO cells (toxicity), the IC50 was greater than 640 mg/L and the “IC50 in VERO cells” value was greater than 640 mg/L. Besides, in the data set with VERO cells (VERO IC50 / MBC dormant H37Rv), the “SI, selectivity index (IC50/MBC)” value was >50-100.

On to `CC[C@H]1OC(=O)[C@H](C)[C@@H](O[C@H]2C[C@@](C)(OC)[C@@H](O)[C@H](C)O2)[C@H](C)[C@@H](O[C@@H]2O[C@H](C)C[C@H](N(C)C)[C@H]2O)[C@](C)(OC)C[C@@H](C)C(=O)[C@H](C)[C@@H](O)[C@]1(C)O` [Clarithromycin, clarithromycin], for which the MBC in the data set on M. tuberculosis H37Rv [1] (setting [15]) and with M. tuberculosis H37Rv [1] (setting [16]) was greater than 312 mg/L in each case. For the same compound, the “MBC (minimum bactericidal concentration)” value in the data set with M. tuberculosis H37Rv [1] (setting [10]) is greater than 312.5 mg/L.

For orientation: bioavailability means the share of a dose that reaches the circulation, judged against a reference dose that is usually intravenous. `O=[N+]([O-])c1nccn1CCCNc1ccnc2cc(Cl)ccc12` [NLCQ-1, 4-[3-(2-Nitro-1-imidazolyl)-propylamino]-7-chloroquinoline hydrochloride]: in data set [7], the “stability in human plasma” value is “good stability in human plasma”. The adverse effects entry in “Toxicity study in rats” was “no adverse effects”; in “Toxicity study in dogs”, “no adverse effects”; in [8] (i.p. 30 mg/kg bolus or 45 mg/kg as 3 fractions of 15 mg/kg every two hours daily, mice), “no adverse effects”. Further, the MBC was 3.1 mg/L with M. tuberculosis H37Rv [1] (setting [12]) and 3.1 to 18.4 mg/L in the data set on M. tuberculosis H37Rv [1] (setting [13]). Also, the inhibition at 6.25 µg/mL in data set [3] (setting [14]) came to 0%. Besides, the IC50 with VERO cells came out at 147 mg/L. Also, the “hydrophilicity (aqueous solubility) compared with PA-824” value in data set [4] is given as “more hydrophilic”. The “solubility in water” value in data set [4] was “soluble in water”. This compound also returned an MTD at 1 week in data set [8] (female, C57BL/6, mouse, in vivo, ip, single dose) of 30 mg/kg. The same compound came in with an MTD in data set [8] (mouse, in vivo, ip, multiple doses) of no less than 45 mg/kg. Besides, the peak plasma concentration was 8.9 µg/mL in data set [9] (i.p. injection of 10 mg/kg) and 0.461 µg/mL in data set [9] (oral administration of 10 mg/kg). In data set [9] (mouse, plasma, oral administration of 10 mg/kg), this compound displayed a bioavailability of 29%.
